Test results as given in article PMC12606608, “Identification of Novel Selective Transient Receptor Potential Vanilloid 4 (TRPV4) Agonists” (Current Pharmaceutical Design, 2025).
“Also recorded” adds a separate entry of the source. Like-named read-outs stand apart in the source and are kept apart here.

Columns and labels:
[1] = molecular target: T1, mouse TRPV4 (Mus musculus, UniProt Q9EPK8); experiment: Live-cell Fura-2 Ca2+ imaging in HEK293T cells transiently transfected with mouse TRPV4 (TRPV4-HEK293 cells); format: cell-based; conditions: for Ca2+ influx in the presence of GSK219: agonist 30 nM, pre- and co-applied 100 nM GSK219; for Hill coefficient: concentration-response curve; for Ca2+ influx (F340/F380): 30 nM, 2 min
T1 construct: expressed in transfected cells; host or cells: HEK293 (ATCC CRL-1573; elsewhere called HEK293T), transient, Lipofectamine 2000
T1 sequence (Q9EPK8 whole entry): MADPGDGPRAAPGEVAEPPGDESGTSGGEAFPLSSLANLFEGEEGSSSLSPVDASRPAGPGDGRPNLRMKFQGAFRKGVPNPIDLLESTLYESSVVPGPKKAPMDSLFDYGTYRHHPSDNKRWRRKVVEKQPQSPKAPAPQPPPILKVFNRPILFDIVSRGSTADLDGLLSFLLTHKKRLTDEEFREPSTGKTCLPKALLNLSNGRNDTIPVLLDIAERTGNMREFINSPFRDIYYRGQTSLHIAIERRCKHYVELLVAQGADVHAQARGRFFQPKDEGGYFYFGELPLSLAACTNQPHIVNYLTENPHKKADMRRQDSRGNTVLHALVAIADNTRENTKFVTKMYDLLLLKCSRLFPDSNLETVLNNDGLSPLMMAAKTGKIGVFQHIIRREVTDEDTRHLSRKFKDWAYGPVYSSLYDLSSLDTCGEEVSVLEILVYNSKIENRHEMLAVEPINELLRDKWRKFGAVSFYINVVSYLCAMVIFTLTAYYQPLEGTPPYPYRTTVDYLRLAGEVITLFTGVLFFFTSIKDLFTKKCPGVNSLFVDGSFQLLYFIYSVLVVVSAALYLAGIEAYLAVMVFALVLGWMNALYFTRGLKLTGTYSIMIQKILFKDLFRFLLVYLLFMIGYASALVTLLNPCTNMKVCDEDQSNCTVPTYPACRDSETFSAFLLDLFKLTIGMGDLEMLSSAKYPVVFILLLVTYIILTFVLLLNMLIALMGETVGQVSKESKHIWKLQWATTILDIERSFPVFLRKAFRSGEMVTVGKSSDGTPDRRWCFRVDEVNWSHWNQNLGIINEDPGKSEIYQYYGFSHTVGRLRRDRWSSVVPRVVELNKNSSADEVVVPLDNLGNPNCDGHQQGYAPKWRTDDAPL
Procedure: HEK293 cells were purchased from ATCC (ATCC CRL-1573; Manassas, VA, USA). As previously reported, the cells were tested for mycoplasma contamination before being cultured in the laboratory and grown as a monolayer in Dulbecco’s modified Eagle’s medium (DMEM) (Life Technologies, Carlsbad, CA, USA), supplemented with 10% fetal bovine serum (FBS; Life Technologies), 100 units/mL penicillin, and 100 μg/mL streptomycin. The cells were maintained in a humidified incubator at 37°C under 5% CO2. The cDNAs for mouse TRPV4 (mTRPV4) were transiently transfected into HEK293 cells for at least 24 hours using Lipofectamine 2000 (Invitrogen, Waltham, MA, USA).
(§1) Fura-2-based ratiometric measurements of intracellular calcium concentration ([Ca^2+]i) were performed as previously described. HEK293T cells transiently transfected with mTRPV4, primary keratinocytes, and macrophages were loaded with 4 μM Fura-2 AM (Life Technologies) in culture medium at 37°C for 60 minutes. The cells were then washed three times and incubated in Hanks’ balanced salt solution (HBSS) at room temperature for 30 minutes before use. Fluorescence intensities were measured at excitation wavelengths of 340 nm and 380 nm using an inverted Leica fluorescence microscope equipped with excitation filter wheels (340 nm, 360 nm, and 380 nm). The data were captured using LAS X imaging software (Leica Microsystems, Wetzlar, Germany). The Fura-2 ratios (F340/F380) were used to indicate changes in intracellular calcium ion concentrations ([Ca^2+]i) in response to stimulation. These values were derived from time-lapse imaging of each coverslip. The baseline of the cells was measured in the resting state, and once the value stabilized, the cells were treated with drugs. If no significant difference in the cell baseline was observed, cell viability was considered consistent. The activation threshold was defined as three standard deviations (SDs) above the mean, which corresponds to approximately 20% above the baseline.
GSK101 and the compounds were dissolved to create a concentration gradient (0.3 nM, 3 nM, 30 nM, 100 nM, 0.3 μM, 3 μM, 30 μM, 300 μM). Live-cell calcium imaging experiments were performed using fura-2-labeled TRPV4-HEK293 cells, and the fluorescence curves were recorded for each concentration of the compounds. The experiments were repeated three times, with the number of live cells in each field of view exceeding 100. The real-time fluorescence intensity curves from each experiment were statistically analyzed to calculate the cell response rate (the percentage of cells showing a fluorescence increase greater than 20% above baseline relative to the total number of cells). The concentration-response curves were fitted using GraphPad Prism (with the logarithm of concentration on the X-axis and the response rate on the Y-axis), and the Hill coefficient and EC50 values for each compound were automatically output.
To evaluate the efficacy of these synthetic analogues in vitro, we assessed their ability to activate TRPV4 using a Ca^2+ imaging assay. Because of the low expression of TRPV4 in native cells, we utilized a heterologous expression system and conducted Ca^2+ imaging in HEK293T cells that were transiently transfected with mouse TRPV4 (TRPV4-HEK293 cells).

[2] = tested on: C57BL/6J mice; experiment: Mechanical pain test (von Frey, intraplantar injection); format: in vivo, mouse
Procedure: (§2) Eighty adult male wild-type C57BL/6J mice and thirty TRPV4 knockout C57BL/6J mice (weighing 23-25g) were purchased from Gem Pharmatech (Nanjing, China) and maintained under a 12-hour light-dark cycle at 24°C. For all experiments, mice aged 8 to 12 weeks were utilized and acclimatized to the experimental room one week before the experiments. The mice were assigned to the experimental and control groups (5 mice/group) using a computer-generated table of random numbers (0-10), as well as the sequence of dosing and measurement. All behavioral tests were recorded from a side view, and the evaluations were carried out by observers who were unaware of the animals' treatment and genotype.
The mice were allowed to acclimate for 1.5 hours in red plastic enclosures on a metal mesh platform. The test compounds (30 μM) were formulated in 0.9% saline solution and administered via intraplantar injection with a volume of 10 μL. Calibrated von Frey filaments (0.02, 0.04, 0.07, 0.16, 0.4, 0.6, 1.0, 1.4, and 2.0 g) were applied perpendicularly to the plantar surfaces of the mice's hind paws for up to 2 seconds, with sufficient force to cause the filament to bend. Brisk withdrawal or flinching of the hind paw during or immediately after application was considered a positive response. […] The threshold force required to elicit paw withdrawal (50% mechanical threshold) was obtained using the up-down method.

[3] = tested on: C57BL/6J mice; experiment: Acute itch test (intradermal injection into the nape, scratches in 30 min); format: in vivo, mouse; conditions: 50 µL intradermal, wild-type mice
Procedure: as §2
Under 1 to 2% isoflurane anesthesia, the mice were shaved on the nape of the neck 5 to 7 days prior to the experiment. For all itch behavior experiments, the mice were acclimated in red plastic chambers for two days before measurements, with acclimation sessions lasting 2 hours on the first day and 1.5 hours on the day of measurement. GSK101 (30 μM) and the test compounds (30 μM and 300 μM) were formulated in 0.9% saline and administered via intradermal injection to the nape of the neck at a volume of 50 μL. […] Acute chemical itch was evaluated by counting the number of scratches within the 30-minute recording period.

[4] = molecular target: T2, TRPV4 in primary keratinocytes (Mus musculus, UniProt Q9EPK8); experiment: Live-cell Ca2+ imaging in primary keratinocytes of neonatal TRPV4+/+ mice; format: cell-based; conditions: for [Ca2+]i response: 0.3 μM
T2 construct: endogenous in cells; host or cells: primary keratinocytes of neonatal (P0-P2) mice
T2 sequence (Q9EPK8 whole entry): as above
Procedure: Mice (P0-P2) were sacrificed and soaked in 10% povidone-iodine for 5 min. After being rinsed with 70% ethanol multiple times, the skin was removed and placed in a Petri dish containing PBS solution with 0.25% dispase II and incubated at 4°C overnight. The epidermis was then separated from the subcutaneous tissues, and keratinocytes were separated from the epidermis using a cell scraper and collected in 2 mL mouse keratinocyte media (Life Technologies). Dissociated cells were transferred to a 15% BSA column (1 mL) and centrifuged for 5 min at 1000 rpm. The cells were resuspended and seeded in […] Petri dishes containing 8-9 culture slides and placed in the culture incubator.
as §1, with “baseline. […]” for “baseline.”

[5] = molecular target: T3, TRPV4 in peritoneal macrophages (Mus musculus, UniProt Q9EPK8); experiment: Live-cell Ca2+ imaging in freshly dissociated peritoneal macrophages from TRPV4+/+ mice; format: cell-based; conditions: for [Ca2+]i response: 0.3 μM
T3 construct: endogenous in cells; host or cells: freshly dissociated murine peritoneal macrophages
T3 sequence (Q9EPK8 whole entry): as above
Procedure: Peritoneal macrophages were isolated as previously described. The mice were euthanized by cervical dislocation, and their abdomens were dissected in the middle. Six milliliters of cold phosphate-buffered saline (PBS) was instilled into the peritoneal cavity, followed by gentle massage and subsequent aspiration. The samples were centrifuged for 5 min at 4°C and 300 g, resuspended in 2 mL PBS, and filtered using […] cell strainers. After another centrifugation, the cell suspensions were seeded in […] Petri dishes containing 8-9 culture slides and placed in a culture incubator (37°C, 5% CO2).
as §1, with “baseline. […]” for “baseline.”

[6] = dose-response of cell response rate, TRPV4-HEK293 cells, read-out: EC50
[7] = GSK219 1 μM pre- and co-applied

Row | SMILES | Ca2+ influx in the presence of GSK219 [1] | Hill coefficient ([1]; TRPV4-HEK293 cells) | EC50 [1, 6] [µM] | Ca2+ influx (F340/F380) ([1]; TRPV4-HEK293 cells) | further results
1 | CC(C)C[C@H](NC(=O)c1cc2ccccc2s1)C(=O)N1CC2CCC(C1)N2C(=O)C(CO)NS(=O)(=O)c1ccc(Cl)cc1Cl (stereo partly drawn) [GM1004] | abolished | 1.1650 | 11.5 | – | –
2 | CC(C)CC(NC(=O)c1cc2ccccc2s1)C(=O)N1CC2COCC(C1)N2C(=O)C(CO)NS(=O)(=O)c1ccc(Cl)cc1Cl (stereo not drawn) [GM1009] | abolished | 0.2998 | 85.6 | – | –
3 | CC(C)C[C@H](NC(=O)c1cc2ccccc2s1)C(=O)N1CCN(C(=O)[C@H](CO)NS(=O)(=O)c2ccc(Cl)cc2Cl)CC1 [GSK101, N-((1S)-1-{[4-((2S)-2-{[(2,4-dichlorophenyl)sulfonyl]amino}-3-hydroxypropanoyl)-1-piperazinyl]carbonyl}-3-methylbutyl)-1-benzothiophene-2-carboxamide, reference compound] | abolished | 0.9273 | – | produced a Ca^2+ influx of different strengths | EC50 [1]: 0.0137 µM; Mechanical hyperalgesia (paw withdrawal) vs control group ([2]; 30 µM, 10 µL intraplantar, wild-type mice): significantly induced mechanical hyperalgesia; Number of scratching bouts within 30 minutes (average) ([3]; 30 μM): 50; Number of scratches within 30 minutes (average) ([3]; 300 µM): 88; [Ca2+]i response [4]: induced a significant TRPV4-mediated calcium response; [Ca2+]i response [5]: induced a significant TRPV4-mediated calcium response
4 | O=C(NC1(c2ccccc2)CC1)c1c(CN2CCC(N3CCCCC3)CC2)c(-c2cccc(C(F)(F)F)c2)nc2cc(Br)ccc12 [GSK219, reference compound] | – | – | – | – | Inhibition of agonist-induced Ca2+ influx ([1]; 100 nM GSK219 pre- and co-applied, TRPV4-HEK293 cells): abolished the action of GSK101 and compounds; Block of compound-induced pain-like behavior ([2]; GSK219 intraperitoneally 30 minutes before plantar injection of compounds (30 µM)): blocked the pain-like behavior induced by GSK101 derivatives; Inhibition of agonist-elicited [Ca2+]i response [4, 7]: abolished the GSK101 action; Inhibition of agonist-elicited [Ca2+]i response [5, 7]: abolished the GSK101 action
5 | CC(C)CC(NC(=O)c1cc2ccccc2s1)C(=O)N1CCN(C(=O)C(CO)NC(=O)c2ccc(Cl)cc2Cl)CC1 (stereo not drawn) [LM0024] | abolished | 0.7036 | 20 | – | –
6 | CC(C)CC(NC(=O)c1cc2ccccc2s1)C(=O)N1CCN(C(=O)C(CO)NC(=O)c2ccc(Cl)cc2)CC1 (stereo not drawn) [LM0025] | – | – | – | no measurable current | –
7 | CC(C)CC(NC(=O)c1cc2ccccc2s1)C(=O)N1CCCN(C(=O)C(CO)NS(=O)(=O)c2ccc(Cl)cc2Cl)CC1 (stereo not drawn) [LM0038] | abolished | 1.0280 | 0.168 | – | [Ca2+]i response [4]: induced a significant TRPV4-mediated calcium response; also recorded: weaker calcium influx than before; [Ca2+]i response [5]: induced a significant TRPV4-mediated calcium response; also recorded: signals with lower peaks than before
8 | CC(C)CC(NC(=O)c1cc2ccccc2s1)C(=O)N1CC2(C1)CN(C(=O)C(CO)NS(=O)(=O)c1ccc(Cl)cc1)C2 (stereo not drawn) [LM6140] | – | – | – | no measurable current | –
9 | CC(C)CC(NC(=O)c1cc2ccccc2s1)C(=O)N1CC2(C1)CN(C(=O)C(CO)NS(=O)(=O)c1cccc(Cl)c1)C2 (stereo not drawn) [LM6142] | – | – | – | no measurable current | –
10 | CC(C)CC(NC(=O)c1cc2ccccc2s1)C(=O)N1CC2(C1)CN(C(=O)C(CO)NS(=O)(=O)c1ccccc1Cl)C2 (stereo not drawn) [LM6146] | abolished | 0.3283 | 78.9 | – | Immediate pain-inducing effect compared with GSK101 ([2]; 30 µM intraplantar, 0 h, wild-type mice): slightly weaker than that of GSK101; Pain-inducing effect one hour post-injection compared with GSK101 ([2]; 30 µM intraplantar, 1 h, wild-type mice): reached a level comparable to GSK101
11 | CC(C)CC(NC(=O)c1cc2ccccc2s1)C(=O)N1CC2(C1)CN(C(=O)C(CO)NS(=O)(=O)c1ccccc1)C2 (stereo not drawn) [LM6147] | abolished | 1.1150 | 6.08 | – | –
12 | C[C@H](CCC(=O)O)C[C@H](C)C[C@H](C)C(=O)/C=C(\O)[C@H](C)C[C@H](C)C/C=C/[C@@H](C)[C@@H](O)[C@@H](C)[C@@H](O)C[C@@H]1CC[C@@](C)([C@H]2CC[C@@](C)([C@@H](C)O)O2)O1 [ionomycin, reference compound] | – | – | – | – | Intracellular calcium concentration (positive control) ([1]; 1 μM ionomycin, TRPV4-HEK293 cells): rapidly and significantly increased intracellular calcium concentration
